From patent US20200247812A1 (Integral Biosciences Private Limited, priority 2018, published 2020) come the findings set out here.

The target of one assay is T1, ALK 5 (Homo sapiens, UniProt P36897).
T1 sequence (P36897 34-503): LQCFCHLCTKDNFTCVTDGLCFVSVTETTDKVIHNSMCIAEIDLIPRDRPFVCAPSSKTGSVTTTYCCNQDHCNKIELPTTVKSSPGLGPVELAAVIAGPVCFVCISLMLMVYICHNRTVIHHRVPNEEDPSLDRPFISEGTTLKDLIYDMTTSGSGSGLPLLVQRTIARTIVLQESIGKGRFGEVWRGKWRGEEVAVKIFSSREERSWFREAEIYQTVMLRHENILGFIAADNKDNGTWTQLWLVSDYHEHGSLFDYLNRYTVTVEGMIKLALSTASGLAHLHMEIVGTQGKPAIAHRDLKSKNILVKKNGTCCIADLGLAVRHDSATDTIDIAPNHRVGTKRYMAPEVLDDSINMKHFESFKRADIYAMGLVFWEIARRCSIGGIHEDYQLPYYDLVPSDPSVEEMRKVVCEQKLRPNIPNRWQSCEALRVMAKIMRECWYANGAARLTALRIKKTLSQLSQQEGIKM
The assay can be described thus: In vitro kinase assay (ALK5 IC50, LanthaScreen Terbium labeled TR-FRET). As to conditions: TGF-β kinase 6 nM, ATP 10 μM, read-out: Enzyme Activity ALK 5 IC50. Format: biochemical. Put shortly:
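LanthaScreen Tb TR-FRET: ALK5 (6 nM) preincubated 10 min with 3-fold diluted compounds, then 10 μM ATP and 200 nM fluorescent PolyGT substrate added for 1 h at room temperature. Stopped with EDTA/Tb antibody; 520/495 nm emission read. IC50 from four-parameter fit versus DMSO and no-enzyme controls.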
(Time-resolved FRET reads energy transfer from a long-lived donor to a nearby acceptor.)

Assay [1] concerns phosphorylation of Smad-2 in THP-1 cells. The experiment in a line: Inhibition of phosphorylation of Smad-2 in THP-1 cells (Phospho-Smad2 ELISA). It counts as cell-based.
For the next assay, the system named is HCT116. The assay can be described thus: Cell viability assay (resazurin), HCT116. Particulars: Homo sapiens, HCT-116, 72-144 hr. It counts as cell-based. Here is the method: (§1) Different cell lines such as pancreatic, (MIA PaCa-2; ATCC®CRL-1420™ & and Panc-1; CRL-1469™), liver carcinoma (HepG2; ATCC® HB-8065™), lung epithelial carcinoma (A549; ATCC® CCL-185™) and others were seeded in their respective medium (DMEM, Cat #10569044, MEM, Cat #41090036; RPMI, Cat #22400089; all with 10% FBS, Gibco, ThermoFisher) at a cell count of 3000 cells per 100 μl per well in a 96 well edge plate (167425; ThermoFisher). Cells were allowed to grow at 37° C. for 24 hr in 5% CO2 (culture conditions) in a Nuaire incubator (humidified). Serially diluted compounds (100 μl) were added to the culture plate 24 hr later and the cultures were further incubated in culture conditions for specified time depending on doubling time of specific cell line (ranging from 72-144 hr). Experiment was terminated at the completion of incubation time with the drug by replacing the medium with 100 μl of 1 mM of resazurin (R7017; Sigma) prepared in respective culture medium and the plates were further incubated in culture conditions for 4 hr. Fluorescence was then measured using a multimodal plate reader (Biotek Synergy Neo) at an excitation wavelength of 535 nm and emission wavelength of 590 nm to obtain relative fluorescence units. Data analysis was done by subtracting the background fluorescence (only medium blank) value from each reading and then normalizing with the vehicle control (DMSO treated cells) to obtain percent survival/proliferation. Percent survival at different doses was used to calculate IC50 by fitting the curve to the “four-parameter variable slope logistic model” using Prism Graph Pad.
A general note: Resazurin is reduced to fluorescent resorufin, in cell work by metabolically active cells.

Another assay concerns A549. The experiment in a line: Cell viability assay (resazurin), A549. It counts as cell-based. Particulars: Homo sapiens, 72-144 hr. Here is the method:
as §1

Another assay deals with HepG2. The experiment in a line: Cell viability assay (resazurin), HepG2. Format: cell-based. As to conditions: Homo sapiens, 72-144 hr. Here is the method:
as §1

A further assay relates to MDA_MB-231. The experiment in a line: Cell viability assay (resazurin), MDA_MB-231. It counts as cell-based. Particulars: Homo sapiens, MDA-MB-231, 72-144 hr. The protocol: as §1
The next assay deals with 22Rv1. The experiment in a line: Cell viability assay (resazurin), 22Rv1. It counts as cell-based. As to conditions: Homo sapiens, 72-144 hr. The protocol: as §1
In another assay the test system is A427. The experiment in a line: Cell viability assay (resazurin), A427. It counts as cell-based. Particulars: Homo sapiens, A-427, 72-144 hr. The protocol:
as §1

The subject of the next assay is AsPC-1. The assay can be described thus: Cell viability assay (resazurin), AsPC-1. It counts as cell-based. Particulars: Homo sapiens, ASPC1, 72-144 hr. The protocol:
as §1

The next assay relates to THP1. The assay can be described thus: Cell viability assay (resazurin), THP1. Format: cell-based. As to conditions: Homo sapiens, THP-1, 72-144 hr. Here is the method:
as §1

The test system of another assay is Panc-10.05. The assay can be described thus: Cell viability assay (resazurin), Panc-10.05. Format: cell-based. Particulars: Homo sapiens, Panc1005, 72-144 hr. The protocol:
as §1

Another assay concerns human PBMC's. The experiment in a line: Viability in CD3e/CD28 activated human PBMC's (resazurin). Format: cell-based. Particulars: 72 hr. The protocol: IC50 values of compounds for determining viability in CD3e/CD28 activated human PBMC's (hPBMC-34033, Cat # CC-2702; Lonza) cultured in LGM3 medium, Cat # CC #3211; Lonza). Human PBMC's (0.25×10^6 cells/well) were activated with Anti-human CD3e (0.5 μg/ml, coated overnight at 4° C.; Cat #16-0037-81, eBioscience) and then incubated with serial dilutions of compounds (3 fold, 8 point dose response starting at 30 μM) for 30 min at 37° C., 5% CO2 in an incubator (cell culture conditions) prior to treating them with Anti-human CD28 (0.25 μg/ml soluble; Cat #16-0289-81, eBiosciences). Human PBMC's were further incubated under cell culture conditions for 72 hr following which experiment was terminated by replacing the medium with 100 μl of 1 mM of resazurin (R7017; Sigma) prepared in culture medium and the plates were further incubated in culture conditions for 4 hr. Fluorescence was then measured using a multimodal plate reader (Biotek Synergy Neo) at an excitation wavelength of 535 nm and emission wavelength of 590 nm to obtain relative fluorescence units. Data analysis was done by subtracting the background fluorescence (only medium blank) value from each reading and then normalizing with the vehicle control (DMSO treated cells) to obtain percent survival/proliferation. Percent survival at different doses was used to calculate IC50 by fitting the curve to the “four-parameter variable slope logistic model” using Prism Graph Pad.

The subject of the next assay is MCF7. The assay can be described thus: Cell viability assay (resazurin), MCF7. Format: cell-based. As to conditions: Homo sapiens, 72-144 hr. Here is the method: as §1
The subject of assay [2] is phosphorylation of Smad-2 in THP-1 cells. The assay can be described thus: Inhibition of phosphorylation of Smad-2 in THP-1 cells (Phospho-Smad2 ELISA). As to conditions: 1.5 h, human TGF-β 20 ng/ml, 90 min, read-out: pSmad2 IC50. Format: cell-based. The protocol: IC50 values of compounds for determining inhibition of phosphorylation of Smad-2 in THP-1 cells (ATCC, Cat # ATCC® TIB-202™) cultured in RPMI medium, (Cat #22400089; with 10% FBS, Gibco, ThermoFisher). THP-1 cells (1.0×10^6 cells/well; 6 well plate) were incubated with serial dilutions of compounds (3 fold, 5 point dose response starting at 10 μM) for 60 min at 37° C., 5% CO2 in an incubator (cell culture conditions) prior to treating them with Recombinant Human TGF-β (20 ng/ml soluble; Cat #100-21, Peprotech) for 90 min. The cells were then pelleted and processed for protein estimation and evaluation of pSmad using ELISA kit from Cell Signaling (PathScan(R) Phospho-Smad2 (Ser465/467) Sandwich ELISA; Cat #7348C) as per manufacturer's protocol. Data analysis was done by subtracting the background absorbance (only negative control) value from each reading and then normalizing with the vehicle control (DMSO treated cells) to obtain percent levels of pSmad-2. Percent inhibition thus obtained (by subtracting expression levels of pSmad from 100) at different doses was used to calculate IC50 by fitting the curve to the “four-parameter variable slope logistic model” using Prism Graph Pad.
(In an ELISA, binding on a coated surface is turned into a signal by an enzyme label.)

The test system of another assay is MV-4-11. The experiment in a line: Cell viability assay (resazurin), MV-4-11. Format: cell-based. Particulars: Homo sapiens, MV4-11, 72-144 hr. The protocol:
as §1

Structures can show the parent of a compound that is named as a salt. Some results are limits rather than exact numbers.

In general, IC50 refers to the concentration that inhibits the measured activity by half. For the compound `CC(C)c1[nH]c(=O)c(-c2cc(Cl)ccc2F)cc1Nc1ccncc1C(=O)NC[C@H](C)O` [Compound 1.5, (S)-4-((5-(5-chloro-2-fluorophenyl)-2-isopropyl-6-oxo-1,6-dihydropyridin-3-yl)amino)-N-(2-hydroxypropyl)nicotinamide], the IC50 on ALK 5 was at most 0.5 µM. Besides, the “% Inhibition of pSmad2” value in [1] (3 μg) is listed as 47.3%; in [1] (10 μg), 53.3%.

`CN(C)c1[nH]c(=O)c(-c2cc(Cl)ccc2F)cc1Nc1ccnc2[nH]ccc12` [Compound 1.12, 5-((1H-pyrrolo[2,3-b]pyridin-4-yl)amino)-3-(5-chloro-2-fluorophenyl)-6-(dimethylamino)pyridin-2-ol hydrochloride]: the IC50 at ALK 5 was at most 0.5 µM; with HCT116 it was 2.64 µM; in the assay on A549 it was 2.77 µM; in the assay with HepG2 it was 2.64 µM; in the assay with MDA_MB-231 it was 2.75 µM; with 22Rv1, 1.53 µM. Also, the IC50 in the assay with A427 was 3.1 µM; with AsPC-1 it was 1.82 µM; in the assay on THP1, 0.635 µM; in the assay on Panc-10.05 it was 2.21 µM; in the assay on human PBMC's, 18.2 µM. For the same compound, the “% Inhibition of pSmad2” value is recorded as 51.6% in [1] (3 μg) and 48.4% in assay [1] (10 μg).

Take `CC(=O)Nc1cc(Nc2cc(-c3cc(Cl)ccc3F)c(=O)[nH]c2N(C)C)ccn1` [Compound 1.40, N-(4-((5-(5-chloro-2-fluorophenyl)-2-(dimethylamino)-6-oxo-1,6-dihydropyridin-3-yl)amino)pyridin-2-yl)acetamide]: the IC50 on ALK 5 is at most 0.5 µM; with HCT116, 13.4 µM; with A549, 28.5 µM; in the assay with HepG2 it was 12.6 µM; in the assay with MDA_MB-231 it was 12.6 µM; with A427 it was 15.2 µM. The values for the IC50 in the assay on THP1 and with Panc-10.05 were 6.09 µM and 28.5 µM, respectively.

Take `CC(C)c1[nH]c(=O)c(-c2cc(Cl)ccc2F)cc1Nc1ccnc2c1CC(=O)N2` [Compound 1.61, 4-((5-(5-chloro-2-fluorophenyl)-2-isopropyl-6-oxo-1,6-dihydropyridin-3-yl)amino)-1,3-dihydro-2H-pyrrolo[2,3-b]pyridin-2-one]: the IC50 was at most 0.5 µM at ALK 5; above 30 µM with HCT116; above 30 µM in the assay on HepG2; above 30 µM in the assay with MDA_MB-231; above 30 µM in the assay on AsPC-1; above 30 µM in the assay on MCF7. In addition, the IC50 in assay [2] was 1.33 µM.

As to `COC(=O)c1cnccc1Nc1cc(-c2cc(Cl)ccc2F)c(=O)[nH]c1N(C)C` [Compound 1.29, methyl 4-((5-(5-chloro-2-fluorophenyl)-2-(dimethylamino)-6-hydroxypyridin-3-yl)amino)nicotinate], the IC50 is 0.5 to 2 µM on ALK 5 and above 30 µM with HCT116.

For `C[C@@H](CO)NC(=O)c1cnccc1Nc1cc(-c2cc(Cl)ccc2F)c(=O)[nH]c1N(C)C` [Compound 1.10, (S)-4-((5-(5-chloro-2-fluorophenyl)-2-(dimethylamino)-6-hydroxypyridin-3-yl)amino)-N-(1-hydroxypropan-2-yl)nicotinamide], the IC50 on ALK 5 is at most 0.5 µM; in the assay with human PBMC's, 24.5 µM. The “% Inhibition of pSmad2” value is 36.7% in [1] (3 μg) and 45.1% in assay [1] (10 μg).

Turning to `CC(=O)Nc1cc(Nc2cc(-c3cc(Cl)ccc3F)c(=O)[nH]c2C2CC2)ccn1` [Compound 1.69, N-(4-((5-(5-chloro-2-fluorophenyl)-2-cyclopropyl-6-oxo-1,6-dihydropyridin-3-yl)amino)pyridin-2-yl)acetamide], the IC50 at ALK 5 is at most 0.5 µM; in the assay on HCT116, above 30 µM; in the assay with HepG2, 15.7 µM; in the assay with MDA_MB-231, 15.3 µM; in the assay with A427 it was above 30 µM; with MV-4-11, 16.3 µM. For the same compound, the IC50 is 18.7 µM with MCF7 and 13 µM with THP1.

Take `CN(C)c1[nH]c(=O)c(-c2cc(Cl)ccc2F)cc1Nc1ccncc1C(N)=O` [Compound 1.32, 4-((5-(5-chloro-2-fluorophenyl)-2-(dimethylamino)-6-hydroxypyridin-3-yl)amino)nicotinamide]: the IC50 was at most 0.5 µM at ALK 5; above 30 µM with HCT116; above 30 µM in the assay on A549; above 30 µM in the assay on MDA_MB-231; above 30 µM with A427; above 30 µM in the assay on AsPC-1. In addition, the IC50 was above 10 µM in the assay with MCF7 and above 30 µM in the assay on Panc-10.05. Moreover, the results for the “% Inhibition of pSmad2” value in assay [1] (3 μg) and in assay [1] (10 μg) were 51.3% and 50.5%, respectively.

Take `CCc1[nH]c(=O)c(-c2cc(Cl)ccc2F)cc1Nc1ccnc(NC(C)=O)c1` [Compound 1.70, N-(4-((5-(5-chloro-2-fluorophenyl)-2-ethyl-6-oxo-1,6-dihydropyridin-3-yl)amino)pyridin-2-yl)acetamide]: the IC50 at ALK 5 is at most 0.5 µM; in the assay on HCT116 it was above 30 µM; in the assay with HepG2, 18.2 µM; with MDA_MB-231 it was above 30 µM; in the assay with A427, above 30 µM; with MV-4-11, 29.2 µM. For the same compound, the IC50 in the assay with MCF7 and with THP1 was above 30 µM throughout.
